Consider 1 molecule from article PMC4177084 (Journal of Thyroid Research, 2014).

One assay deals with T1, KIT(V560G) (Homo sapiens, UniProt P10721, V560G).
T1 construct: purchased Carna Biosciences, Inc. (Kobe, Japan)
Kind of assay: Cell free kinase inhibition assay. It counts as biochemical.

The target in a further assay is T2, FLT4/VEGFR3 (Homo sapiens, UniProt P35916).
T2 construct: purchased Carna Biosciences, Inc. (Kobe, Japan)
Kind of assay: Cell free kinase inhibition assay. It counts as biochemical.

Another assay concerns the target T3, FGFR2 (Homo sapiens, UniProt P21802).
T3 construct: purchased Carna Biosciences, Inc. (Kobe, Japan)
Kind of assay: Cell free kinase inhibition assay. It counts as biochemical.

The next assay concerns the target T4, FGFR3(K650E) (Homo sapiens, UniProt P22607, K650E).
T4 construct: purchased Carna Biosciences, Inc. (Kobe, Japan)
Kind of assay: Cell free kinase inhibition assay. It counts as biochemical.

Another assay addresses T5, LCK (Homo sapiens, UniProt P06239).
T5 construct: purchased Carna Biosciences, Inc. (Kobe, Japan)
Kind of assay: Cell free kinase inhibition assay. Type of assay: biochemical.

The next assay has as its target T6, PDGFRβ (Homo sapiens, UniProt P09619).
T6 construct: purchased Carna Biosciences, Inc. (Kobe, Japan)
Kind of assay: Cell free kinase inhibition assay. It counts as biochemical.

Another assay deals with T7, HGK (Homo sapiens, UniProt O95819).
T7 construct: purchased Carna Biosciences, Inc. (Kobe, Japan)
Kind of assay: Cell free kinase inhibition assay. Type of assay: biochemical.

A further assay concerns the target T8, MET (Homo sapiens, UniProt P08581).
T8 construct: purchased Carna Biosciences, Inc. (Kobe, Japan)
Kind of assay: Cell free kinase inhibition assay. Type of assay: biochemical.

For a further assay, the target named is T9, EPHB2 (Homo sapiens, UniProt P29323).
T9 construct: purchased Carna Biosciences, Inc. (Kobe, Japan)
Kind of assay: Cell free kinase inhibition assay. It counts as biochemical.

The target of the next assay is T10, FGR (Homo sapiens, UniProt P09769).
T10 construct: purchased Carna Biosciences, Inc. (Kobe, Japan)
Kind of assay: Cell free kinase inhibition assay. Type of assay: biochemical.

The target in the next assay is T11, RAF1 (Homo sapiens, UniProt P04049).
T11 construct: purchased Carna Biosciences, Inc. (Kobe, Japan)
Kind of assay: Cell free kinase inhibition assay. It counts as biochemical.

Another assay concerns the target T12, KIT(D816V) (Homo sapiens, UniProt P10721, D816V).
T12 construct: purchased Carna Biosciences, Inc. (Kobe, Japan)
Kind of assay: Cell free kinase inhibition assay. It counts as biochemical.

In the next assay the target is T13, AKT1 (Homo sapiens, UniProt P31749).
T13 construct: purchased Carna Biosciences, Inc. (Kobe, Japan)
Kind of assay: Cell free kinase inhibition assay. Type of assay: biochemical.

The target of another assay is T14, CDK2/CycE1 (Homo sapiens, UniProt P24941).
T14 construct: purchased Carna Biosciences, Inc. (Kobe, Japan)
Kind of assay: Cell free kinase inhibition assay. Type of assay: biochemical.

For a further assay, the target named is T15, PKACα (Homo sapiens, UniProt P17612).
T15 construct: purchased Carna Biosciences, Inc. (Kobe, Japan)
Kind of assay: Cell free kinase inhibition assay. It counts as biochemical.

The test system of a further assay is RO82-W-1 cells. Kind of assay: Antiproliferation assay (WST-8). It counts as cell-based, human. Conditions: Homo sapiens, 72 h; RO82-W-1 (DTC), antiproliferative, 3 days. Background: Tetrazolium assays rely on reduction of a dye to a coloured formazan, in cell work by metabolically active cells.
The subject of a further assay is HTC/C3 cells. Kind of assay: Antiproliferation assay (WST-8). Type of assay: cell-based. The following applies: Homo sapiens, 72 h; HTC/C3 (ATC), antiproliferative, 3 days.
The subject of assay [1] is tumor microvessels in 5 ATC xenografts. Kind of assay: Microvessel density (CD31 immunohistochemistry) in xenografts. Type of assay: in vivo, nude mice. Conditions: all 5 ATC xenograft models, 10 and 100 mg/kg. An excerpt:
(§1) Tumor tissues were resected from nude mice, embedded in Optimal Cutting Temperature (OCT) compound (Sakura Finetek Japan, Tokyo, Japan), frozen in dry ice-acetone, and then sectioned (8 μm), or they were embedded in paraffin, fixed overnight in immunohistochemical (IHC) Zinc Fixative (BD Biosciences), and then sectioned (6 μm). Tumor microvessels were stained by the indirect immunoperoxidase method with a rat anti-mouse CD31 monoclonal antibody (clone MEC13.3, BD Biosciences) and then visualized by using Vectastain ABC (Dako, Tokyo, Japan). Pericyte was stained by the indirect alkaline phosphatase method with an anti-α smooth muscle actin (SMA) antibody conjugated alkaline phosphatase (A 5691, Sigma-Aldrich) and visualized by using Simple Stain AP(R) (Nichirei Biosciences Inc, Tokyo, Japan). Adjacent sections were stained with Hematoxylin-Eosin. Microvessel density (MVD) was determined as described previously. Each section was scanned by using a microscope (VANOX AHBS3, Olympus, Tokyo, Japan) at low magnification to identify 5 areas with the highest densities of CD31-stained microvessels. The microvessels in the selected areas were then counted at 400x magnification. MVD was recorded as the number of microvessels per mm^2. In the DTC xenografts, the percentage of pericyte-covered microvessels was analyzed. Pericyte-covered vessels were identified by examining the colocalization of CD31- (endothelial cells-) positive vessels and αSMA- (pericytes-) positive cells. The number of pericyte-covered vessels was counted in the selected area and then compared with the total number of CD31-stained microvessels in the same area. The percentage of pericyte-covered microvessels was calculated as the number of pericyte-covered microvessels/total number of microvessels × 100 in the selected area. The MVD in the ATC xenograft models was determined by using the digital pathology system ScanScope XT (Aperio, Vista, CA). Briefly, CD31-stained whole tissue slices were scanned on the ScanScope system (Aperio) to generate high-resolution digital slides. By using a digital slide viewer, Aperio ImageScope (v10.0.36.1805, Aperio), 5 regions of interest (ROIs: each 500 μm square) were manually selected as areas with the highest densities of CD31-stained microvessels in each tumor slice. The number of microvessels in each ROI was measured by using Microvessel Analysis Algorithm v1.0 (Aperio), which automatically detects and quantifies microvessels on slides stained with endothelial markers. MVD was expressed as the number of microvessels per mm^2. […] The percentage of microvessel inhibition (%MVI) was calculated from the microvessel density (MVD) according to the following formula: [(1 − MVD of tumor in each compound-treated animal/Mean MVD of tumors in the vehicle control-treated group) × 100].

Assay [2] concerns tumor microvessels in 5 DTC xenografts. The assay is described as above. Type of assay: in vivo, nude mice.
Text: as §1

The test system of assay [3] is tumor microvessels in TT xenografts. Described as above. The following applies: 10 or 100 mg/kg. Type of assay: in vivo, nude mice.
Text: as §1

In assay [4] the test system is CCDC-RET, human DTC TPC1 cell lines. Conditions: cited from earlier work.

T13 sequence (P31749 whole entry): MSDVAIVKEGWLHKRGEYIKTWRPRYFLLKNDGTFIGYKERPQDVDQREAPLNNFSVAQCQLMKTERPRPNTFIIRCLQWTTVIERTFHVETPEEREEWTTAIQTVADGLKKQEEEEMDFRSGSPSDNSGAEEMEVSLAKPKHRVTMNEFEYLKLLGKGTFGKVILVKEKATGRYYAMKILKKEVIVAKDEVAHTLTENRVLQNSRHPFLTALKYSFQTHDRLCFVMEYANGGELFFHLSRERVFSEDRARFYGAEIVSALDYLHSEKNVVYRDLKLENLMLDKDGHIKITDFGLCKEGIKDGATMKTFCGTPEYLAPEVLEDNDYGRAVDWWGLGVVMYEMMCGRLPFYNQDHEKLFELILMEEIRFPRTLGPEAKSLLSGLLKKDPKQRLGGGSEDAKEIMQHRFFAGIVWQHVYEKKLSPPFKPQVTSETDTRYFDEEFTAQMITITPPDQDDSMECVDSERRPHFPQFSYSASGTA
T11 sequence (P04049 whole entry): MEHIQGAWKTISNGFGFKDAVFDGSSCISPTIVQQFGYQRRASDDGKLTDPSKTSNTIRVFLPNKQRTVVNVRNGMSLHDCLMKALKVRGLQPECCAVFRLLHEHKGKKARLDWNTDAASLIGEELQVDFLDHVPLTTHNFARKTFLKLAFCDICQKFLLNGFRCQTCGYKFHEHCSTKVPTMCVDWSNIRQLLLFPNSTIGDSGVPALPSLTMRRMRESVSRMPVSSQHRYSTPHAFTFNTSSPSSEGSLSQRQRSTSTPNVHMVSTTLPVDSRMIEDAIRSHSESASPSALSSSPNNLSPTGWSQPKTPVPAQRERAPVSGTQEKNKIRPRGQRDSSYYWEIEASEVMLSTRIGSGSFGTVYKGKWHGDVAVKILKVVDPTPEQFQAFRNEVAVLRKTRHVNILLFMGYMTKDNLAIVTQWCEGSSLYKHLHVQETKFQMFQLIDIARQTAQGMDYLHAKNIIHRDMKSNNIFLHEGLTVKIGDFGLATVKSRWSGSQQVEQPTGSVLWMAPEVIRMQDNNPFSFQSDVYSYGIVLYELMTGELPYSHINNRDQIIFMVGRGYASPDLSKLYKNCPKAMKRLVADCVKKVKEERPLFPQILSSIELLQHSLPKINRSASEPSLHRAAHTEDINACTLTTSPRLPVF
T12 sequence (P10721 26-976 D816V): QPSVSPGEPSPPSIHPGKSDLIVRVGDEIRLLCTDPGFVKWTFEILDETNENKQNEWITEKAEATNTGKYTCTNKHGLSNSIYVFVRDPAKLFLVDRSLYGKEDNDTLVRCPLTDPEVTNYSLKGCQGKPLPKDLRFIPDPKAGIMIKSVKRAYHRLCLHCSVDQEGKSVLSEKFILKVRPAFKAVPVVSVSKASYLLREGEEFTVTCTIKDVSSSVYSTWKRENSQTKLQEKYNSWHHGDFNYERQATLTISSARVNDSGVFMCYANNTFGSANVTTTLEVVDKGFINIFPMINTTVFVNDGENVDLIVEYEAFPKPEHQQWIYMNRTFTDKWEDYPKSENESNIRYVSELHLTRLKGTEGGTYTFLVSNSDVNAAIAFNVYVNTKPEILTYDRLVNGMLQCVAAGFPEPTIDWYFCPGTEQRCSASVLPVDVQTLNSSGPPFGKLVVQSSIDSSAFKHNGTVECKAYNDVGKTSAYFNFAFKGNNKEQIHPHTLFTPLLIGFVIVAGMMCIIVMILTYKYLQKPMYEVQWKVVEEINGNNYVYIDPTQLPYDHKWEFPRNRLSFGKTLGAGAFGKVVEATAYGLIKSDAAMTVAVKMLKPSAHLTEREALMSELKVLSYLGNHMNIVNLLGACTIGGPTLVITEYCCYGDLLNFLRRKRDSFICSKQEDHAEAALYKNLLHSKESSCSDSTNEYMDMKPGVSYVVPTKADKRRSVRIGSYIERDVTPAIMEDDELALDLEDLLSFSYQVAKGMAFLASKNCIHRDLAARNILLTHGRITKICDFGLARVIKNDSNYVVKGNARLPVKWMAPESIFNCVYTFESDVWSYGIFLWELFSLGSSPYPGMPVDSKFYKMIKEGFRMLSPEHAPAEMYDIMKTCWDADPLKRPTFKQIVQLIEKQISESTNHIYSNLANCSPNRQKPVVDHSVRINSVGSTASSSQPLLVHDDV
T4 sequence (P22607 23-806 K650E): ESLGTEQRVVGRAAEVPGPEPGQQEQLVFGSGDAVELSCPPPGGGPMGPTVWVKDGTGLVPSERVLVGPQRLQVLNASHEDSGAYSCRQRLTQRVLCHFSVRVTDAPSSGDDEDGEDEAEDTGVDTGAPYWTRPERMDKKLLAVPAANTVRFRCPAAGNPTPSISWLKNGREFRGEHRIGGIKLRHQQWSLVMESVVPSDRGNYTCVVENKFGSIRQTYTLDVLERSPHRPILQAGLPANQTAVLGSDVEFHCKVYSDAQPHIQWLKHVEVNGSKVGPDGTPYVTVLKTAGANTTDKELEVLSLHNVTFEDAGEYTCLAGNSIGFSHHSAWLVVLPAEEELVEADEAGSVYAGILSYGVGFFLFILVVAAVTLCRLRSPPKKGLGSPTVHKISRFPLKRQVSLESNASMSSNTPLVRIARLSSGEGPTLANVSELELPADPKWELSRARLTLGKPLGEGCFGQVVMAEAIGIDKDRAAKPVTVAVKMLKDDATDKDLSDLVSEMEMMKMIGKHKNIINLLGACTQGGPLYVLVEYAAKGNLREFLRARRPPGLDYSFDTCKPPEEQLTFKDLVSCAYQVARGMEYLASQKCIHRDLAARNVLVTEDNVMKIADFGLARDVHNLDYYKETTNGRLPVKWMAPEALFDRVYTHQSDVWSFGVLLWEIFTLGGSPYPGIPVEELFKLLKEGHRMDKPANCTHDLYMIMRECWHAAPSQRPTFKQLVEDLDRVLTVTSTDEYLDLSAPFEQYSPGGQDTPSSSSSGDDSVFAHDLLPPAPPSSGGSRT
T10 sequence (P09769 whole entry): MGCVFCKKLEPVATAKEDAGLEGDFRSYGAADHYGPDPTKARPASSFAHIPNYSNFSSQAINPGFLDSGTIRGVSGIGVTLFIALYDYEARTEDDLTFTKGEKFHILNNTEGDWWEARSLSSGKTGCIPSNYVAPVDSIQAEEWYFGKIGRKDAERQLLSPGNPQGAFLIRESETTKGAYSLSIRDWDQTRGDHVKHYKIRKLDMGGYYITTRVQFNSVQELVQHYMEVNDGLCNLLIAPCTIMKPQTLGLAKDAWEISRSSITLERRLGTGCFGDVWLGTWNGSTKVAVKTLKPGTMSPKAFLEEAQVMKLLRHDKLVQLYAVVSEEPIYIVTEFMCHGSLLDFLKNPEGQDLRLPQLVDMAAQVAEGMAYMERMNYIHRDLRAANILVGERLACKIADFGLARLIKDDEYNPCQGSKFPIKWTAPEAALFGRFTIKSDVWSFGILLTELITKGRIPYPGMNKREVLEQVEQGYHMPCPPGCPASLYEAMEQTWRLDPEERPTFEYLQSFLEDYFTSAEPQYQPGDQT
T6 sequence (P09619 33-1106): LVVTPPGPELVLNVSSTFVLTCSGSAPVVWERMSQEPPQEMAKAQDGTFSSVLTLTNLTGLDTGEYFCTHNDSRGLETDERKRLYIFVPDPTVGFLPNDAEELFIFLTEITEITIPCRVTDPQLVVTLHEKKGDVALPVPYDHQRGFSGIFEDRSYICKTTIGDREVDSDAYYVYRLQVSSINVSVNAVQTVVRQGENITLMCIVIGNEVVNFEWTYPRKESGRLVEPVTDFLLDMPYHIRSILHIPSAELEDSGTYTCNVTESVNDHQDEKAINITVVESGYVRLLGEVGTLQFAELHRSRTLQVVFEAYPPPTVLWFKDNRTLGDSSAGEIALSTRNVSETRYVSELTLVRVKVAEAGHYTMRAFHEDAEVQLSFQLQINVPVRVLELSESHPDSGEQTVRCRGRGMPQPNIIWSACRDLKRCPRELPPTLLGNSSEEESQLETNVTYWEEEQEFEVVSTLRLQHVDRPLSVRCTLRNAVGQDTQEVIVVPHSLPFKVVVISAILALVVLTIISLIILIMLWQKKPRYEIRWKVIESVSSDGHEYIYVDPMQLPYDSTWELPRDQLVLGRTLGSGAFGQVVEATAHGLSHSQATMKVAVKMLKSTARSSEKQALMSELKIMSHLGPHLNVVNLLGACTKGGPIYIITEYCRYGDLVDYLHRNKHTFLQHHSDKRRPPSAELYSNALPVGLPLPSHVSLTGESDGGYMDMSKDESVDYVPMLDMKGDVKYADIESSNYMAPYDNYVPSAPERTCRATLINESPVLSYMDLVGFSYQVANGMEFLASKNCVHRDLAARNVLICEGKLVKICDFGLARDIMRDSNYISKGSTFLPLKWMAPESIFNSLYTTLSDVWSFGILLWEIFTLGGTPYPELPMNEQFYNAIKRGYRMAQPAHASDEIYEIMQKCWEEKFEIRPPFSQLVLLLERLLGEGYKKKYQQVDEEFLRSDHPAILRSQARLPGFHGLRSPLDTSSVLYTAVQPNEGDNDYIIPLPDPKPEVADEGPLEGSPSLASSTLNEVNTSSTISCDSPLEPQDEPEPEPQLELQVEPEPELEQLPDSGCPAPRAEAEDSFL
T1 sequence (P10721 26-976 V560G): as the sequence (P10721 26-976 D816V) above, with V535G, V791D counted along it
T5 sequence (P06239 whole entry): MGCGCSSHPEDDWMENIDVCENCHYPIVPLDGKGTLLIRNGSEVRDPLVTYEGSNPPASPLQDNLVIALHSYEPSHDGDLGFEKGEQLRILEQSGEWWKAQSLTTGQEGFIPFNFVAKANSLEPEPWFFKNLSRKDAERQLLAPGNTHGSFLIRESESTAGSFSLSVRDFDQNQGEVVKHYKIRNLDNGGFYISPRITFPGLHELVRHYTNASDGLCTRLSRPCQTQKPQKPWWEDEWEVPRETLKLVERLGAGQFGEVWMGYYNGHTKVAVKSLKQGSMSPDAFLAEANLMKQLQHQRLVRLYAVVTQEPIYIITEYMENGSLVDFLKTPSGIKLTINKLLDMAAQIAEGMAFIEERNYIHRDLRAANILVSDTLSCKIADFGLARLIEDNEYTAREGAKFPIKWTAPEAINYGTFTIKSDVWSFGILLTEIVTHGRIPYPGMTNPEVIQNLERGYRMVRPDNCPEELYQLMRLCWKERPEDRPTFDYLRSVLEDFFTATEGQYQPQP

By IC50 is commonly meant the midpoint of a concentration-inhibition curve. Turning to `COc1cc2nccc(Oc3ccc(NC(=O)NC4CC4)c(Cl)c3)c2cc1C(N)=O` [Lenvatinib, Lenvatinib mesilate], the IC50 at KIT(V560G) came out at 0.74 nM; at FLT4/VEGFR3 it was 2.3 nM; at FGFR2 it was 27 nM; against FGFR3(K650E), 110 nM; on LCK it was 130 nM; at PDGFRβ it was 160 nM. Further, the IC50 is 400 nM against HGK; 520 nM against MET; 660 nM on EPHB2; 910 nM against FGR; 1600 nM on RAF1; more than 10000 nM against KIT(D816V). For the same molecule, the concentration for half-maximal inhibition (IC50) was more than 10000 nM on AKT1; more than 10000 nM at CDK2/CycE1; more than 10000 nM against PKACα; 3800 nM in the assay on RO82-W-1 cells; 28000 nM in the assay on HTC/C3 cells. For the same molecule, the MVD entry is “decreased significantly” in assay [1]; “significantly decreased in 4 of the 5 DTC xenografts” in assay [2] (10 mg/kg); “significantly decreased” in assay [2] (100 mg/kg, all of the 5); “did not decrease the MVDs” in assay [3]. For the same molecule, in assay [4], the “phosphorylation of CCDC-RET, in vitro proliferation and in vivo tumor growth of TPC1” value is reported as “inhibits”.
